Test system: APP
Assay: Western blot of APP and fragments in formic acid brain extracts of hAPP mice
Assay type: in vivo, mouse
Protocol: For Western blot analyses, frozen hemispheres of non-transgenic littermates were homogenized in TBS buffer containing 5 mM EDTA, 1 mM 1,10-phenanthroline (ICN Biomedicals), 20 μM ALLN (BioMol) and a protease inhibitor mixture (Roche). Homogenates were centrifuged at 100000 g for 1 hour at +4° C. The supernatants were used for analyses of secreted APP forms and ApoE, while the pellets extracted with the homogenization buffer containing 1% Triton X-100 and 0.2% SDS. 120 μg of total protein were resolved on 4-12% or 12% NuPAGE Bis-Tris gels (Invitrogen) under reducing conditions, and Western blots were performed as described previously (Puglielli et al., 2001). For analysis of Notch-ICD (NICD), 250 μg of total protein was immunoprecipitated with an NICD-specific antibody (cleavage site (Val1744)-specific; Cell Signaling Technology) according to manufacturer's recommendations. […] Densitometric analyses were performed using the QuantityOne software package (Bio-Rad). Statistical significance was determined by Student's t test. […]

SMILES: CCCCCCCC[C@H](SCCCCCC)C(=O)Nc1c(SC)cc(C)nc1SC [CP-113,818]
- full-length APP and APP C-terminal fragments C83 and C99: unchanged
- decrease of sAPP levels (adjusted to full-length APP): 60%
